Consider 14 compounds from patent publication US10244779B2, “Method of improving stability of sweet enhancer and composition containing stabilized sweet enhancer” (SENOMYX, INC., priority 2010, dated 2019).

Structures are written as SMILES.

Data set [1] is described as follows: Photostability of Compound A in various mediums (water, brewed coffee, tea, TBHQ in water; FIG. 1). Format: physicochemical. To be noted: TBHQ 200 ppm in water. The protocol: The equivalent sunlight exposure time for 24 hours in the Q-Sun at a constant temperature of 25° C. and irradiance of 450 mW/m^2 @340 nm is estimated to be equivalent to approximately 15.9 days of direct sunlight in the Southwestern United States.
FIG. 1 illustrates the effect of coffee and tea on rate of photo-degradation of Compound A relative to water alone.

For `CCC(=O)N1CCC(COc2cccc3nc(C)c(C(=O)O)c(N)c23)CC1` [Example 153, 4-amino-2-methyl-5-((1-propionylpiperidin-4-yl)methoxy)quinoline-3-carboxylic Acid], the melting point (as a rule, the temperature of the solid-liquid transition) fell in the range of 168 to 170 °C.
On the same count and under the same terms, as for `Cc1nc2cccc(OCC(C)(C)NC(=O)c3cccc(O)c3)c2c(N)c1C(=O)O` [Example 25, 4-amino-5-(2-(3-hydroxybenzamido)-2-methylpropoxy)-2-methylquinoline-3-carboxylic Acid], the figure is 195 to 198 °C; as for `CCC(CC)NC(=O)C(C)(C)COc1cccc2nc(C)c(C(=O)O)c(N)c12` [Example 148, 4-amino-5-(2,2-dimethyl-3-oxo-3-(pentan-3-ylamino)propoxy)-2-methyl-quinoline-3-carboxylic Acid], 172 to 174 °C; as for `CCCNC(=O)C(C)(C)COc1cccc2c1C(N)=NS(=O)(=O)N2` [Example 197, 3-(4-Amino-2,2-dioxide-1H-benzo[c][1,2,6]thiadiazin-5-yloxy)-2′,2′-dimethyl-N-propylpropanamide], 225 to 226 °C.
Same read-out and setting: as for `Cc1nc2cccc(OCC(C)(C)C(=O)NCC3CC3)c2c(N)c1C(=O)O` [Example 146, 4-amino-5-(3-((cyclopropylmethyl)amino)-2,2-dimethyl-3-oxopropoxy)-2-methylquinoline-3-carboxylic Acid], the figure is 177 to 179 °C; as for `Cc1nc2cccc(OCC(C)(C)NC(=O)C3CCOCC3)c2c(N)c1C(=O)O` [Example 140, 4-amino-2-methyl-5-(2-methyl-2-(tetrahydro-2H-pyran-4-carboxamido)-propoxy)quinoline-3-carboxylic Acid], 170 to 173 °C.
As for `CC(C)(C)c1cc(O)ccc1O` [tert-butyl hydroquinone], in data set [1], the “effect on the rate of photo-degradation of Compound A” value was “marginal effect”.
As to `Cc1nc2cccc(OCC(C)(C)NC(=O)CC3CCOCC3)c2c(N)c1C(=O)O` [Example 145, 4-amino-2-methyl-5-(2-methyl-2-(2-(tetrahydro-2H-pyran-4-yl)acetamido)-propoxy)quinoline-3-carboxylic Acid], the melting point is 175 to 178 °C.
Still for that read-out and setting: as for `Cc1nc2cccc(OCC(C)(C)NC(=O)CC(C)C)c2c(N)c1C(=O)O` [Example 138, 4-amino-2-methyl-5-(2-methyl-2-(3-methylbutanamido)propoxy)quinoline-3-carboxylic Acid], the figure is 195 to 198 °C; as for `Cc1nc2cccc(OCC(C)(C)NC(=O)C(C)C)c2c(N)c1C(=O)O` [Example 139, 4-amino-5-(2-isobutyramido-2-methylpropoxy)-2-methylquinoline-3-carboxylic Acid], 184 to 186 °C.
On the same count and under the same terms, for `Nc1nc(=O)[nH]c2sc3c(c12)CCOC3` [Example 159, 4-Amino-5,6-(5′,7′-dihydro-4′H-[2′,3′-c]pyrano)thieno[2,3-d]-pyrimidine-2(1H)-one] the value was more than 260 °C.
Still for that read-out and setting: for `CCC(=O)NC(C)(C)COc1cccc2nc(C)c(C(=O)O)c(N)c12` [Example 141, 4-amino-2-methyl-5-(2-methyl-2-propionamidopropoxy)quinoline-3-carboxylic Acid] the value was 189 to 193 °C; for `Cc1nc2cccc(OCC(C)(C)NC(=O)C3CCC3)c2c(N)c1C(=O)O` [Example 142, 4-amino-5-(2-(cyclobutanecarboxamido)-2-methylpropoxy)-2-methylquinoline-3-carboxylic Acid], 186 to 190 °C; for `Cc1nc2cccc(OCC(C)C)c2c(N)c1C(=O)O` [Example 41, 4-amino-5-isobutoxy-2-methylquinoline-3-carboxylic Acid], 203.7 °C.
